We go through 1 substance from US10226509B2, “Lymphangiogenesis inhibitors for cancer and for graft survival” (TUFTS UNIVERSITY, priority 2014, dated 2019).

Entries after “also recorded” stand apart in the source; their conditions may differ.

Holding throughout (type): cell-based, human
One experiment relates to LEC spheroids. Description: LEC sprouting assay: stimulation by galectins alone. On the procedure:
LEC spheroids were generated by seeding primary LECs at passage 4 or 5 in each well of 384-well hanging-drop plates (3D Biomatrix) in complete EGM-2 MV medium containing 0.25% methyl cellulose according to the manufacturer's instructions (750 cells/well). After 18 hours, LEC spheroids were collected, resuspended in serum-free EBM-2 basal medium, and mixed with collagen solution (PureCol collagen, Advanced BioMatrix, 2.2 mg/ml in M199 medium, pH adjusted to 7.4 with NaHCO3 and NaOH). Aliquots of the LEC spheroid/collagen mixture (250 μl/well of 48-well plate) were incubated in the presence or absence of various test agents for 24 hr. At the end of the incubation period, spheroids were stained with Calcein AM (Invitrogen, 1 μg/mL, 37° C., and 30 min). Fluorescent images were acquired using the EVOS FL cell imaging system, pixels were inverted for better visualization and cumulative length of each sprout was calculated. Results were expressed as fold change compared to corresponding controls. It was observed that sprout lengths vary from passages to passages. Test agents used included thiodigalactoside (10 to 50 mM, Carbosynth), 3′-sialyl lactose (2 to 10 mM, Carbosynth), 6′-sialyl lactose (2 to 10 mM, Carbosynth), LY294002 (20 μM, Abeam), U0126 (20 μM, Abeam), PD0325901 (1 μM, Selleckchem), human VEGFR-3-Fc chimera (10 μg/ml, R&D), human VEGFR-2-Fc chimera (10 μg/ml, R&D), Avastin (10 μg/ml, bevacizumab, Genentech/Roche), human control IgG (10 μg/ml, Southern Biotech), anti-human podoplanin functional grade antibody (10 μg/ml, eBioscience), and rat IgG2a κ isotype control functional grade antibody (10 μg/ml, eBioscience).
To assess the effect of galectins on LEC sprouting, LEC spheroids were embedded in a collagen matrix and incubated with media containing various test agents. After 24 hours, the cumulative length of the sprouts for each spheroid was quantified by ImageJ. […] Multiple approaches were used to determine whether the stimulatory effect of Gal-8 on LEC sprouting was carbohydrate-dependent.

The subject of the next experiment is AKT. Description: Western blot of AKT activation in primary LECs. Particulars: 0.5 μM for 0 to 60 minutes or 0 to 0.5 μM for 30 minutes. On the procedure:
Primary LECs were lysed with Triton lysis buffer supplemented with protease inhibitor cocktail and Phos-STOP phosphatase inhibitor cocktail (Roche), and subjected to electrophoresis in 4-15% SDS-PAGE gels (Bio-Rad). Protein blots of the gels were blocked with 0.5×Odyssey® blocking buffer (OBB, Li-COR). For AKT and ERK signaling, blots were incubated with primary antibodies (rabbit anti-ERK1/2, 1:7500, Cell Signaling Technology; mouse anti-phospho-ERK1/2, Thr202/Tyr204, 1:2000, Cell Signaling Technology; mouse anti-AKT1/2/3, 1:2000, Cell Signaling Technology; rabbit anti-phospho-AKT, Ser473, 1:1500, Cell Signaling Technology) overnight at 4° C. Blots were washed with 0.5% Tween-20/PBS three times, and were incubated with appropriate secondary antibodies (donkey anti-rabbit IRDye 680LT and anti-mouse IRDye 800CW, Li-Cor) for 45 min at 25° C. The blots were scanned by an Odyssey® Infrared Imaging System using Image Studio v2.0 software (Li-COR). […] Signals were detected by Odyssey® Infrared Imaging System. […]
On the technique in general: In western blotting, separated proteins are transferred to a membrane and probed.

Experiment [1] deals with VEGF-C-induced LEC sprouting. Put plainly: LEC sprouting assay: VEGF-C-induced sprouting.

The term EC50 denotes the concentration at which the effect is half-maximal. As for “Gal-8: recombinant galectin-8, tandem-repeat type galectin with two different CRDs”, the “promotion of LEC sprouting by the agent alone (in words)” value with LEC spheroids (24 hours) is “concentration-dependent and was comparable to that of VEGF-C; also recorded: promotes LEC sprouting”. Besides, the “Hill's coefficient (nH) of galectin-8-mediated LEC sprouting” value with LEC spheroids (dose-response curve) is 3.7. Moreover, in the experiment on LEC spheroids (sprouting activity at 0.75 μM set at 100%, read-out: EC50 of galectin-8-mediated LEC sprouting), the EC50 was 520 nM. In addition, the “phosphorylation of AKT (in words)” value in the experiment on AKT was “induced phosphorylation of AKT and ERK1/2 in time- and dose-dependent manner”. In experiment [1] (VEGF-C 50 ng/ml plus 0.75 μM of Gal-8), the “VEGF-C-induced LEC sprouting, times higher than VEGF-C alone or Gal-8 alone” value is 5 times. Further, the “effect on VEGF-C-induced LEC sprouting (in words)” value in experiment [1] (VEGF-C 50 ng/ml, 24 h) is “markedly enhanced”.
